From ChEMBL document CHEMBL1201862, “PubChem BioAssay data set” (2004)
Calls of active or inactive are those of the source. For most assays here, no stated cut-off is given here; in the data, actives have a measured EC50 and inactives only a lower limit.

How the values were obtained:
Cytochrome P450 3A4 = Cytochrome P450 3A4 (Homo sapiens, UniProt P08684);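 further: CYP3A4 tested as one member of a cytochrome P450 panel screen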
[1] = cytotoxicity toward NIH3T3 fibroblasts, dose response, counter-screen, cell-based, ATP luminescence, mouse fibroblasts (AID 2010); assay type: functional;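 further: cells exposed to compound for about 90 hours before reading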
[2] = inhibitors of intracellular T. cruzi replication, confirmation, NIH3T3 host cells, beta-gal luminescence (AID 2044); assay type: functional, cell-based;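 further: intracellular parasites grown in NIH/3T3 mouse fibroblasts as host cells; luminescent beta-galactosidase reporter signal from transgenic T. cruzi replicating inside host cells; inhibitors lower the luminescence signal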
Cytochrome P450 2C9 = Cytochrome P450 2C9 (Homo sapiens, UniProt P11712)
Sequence of Cytochrome P450 2C9 (P11712 whole entry): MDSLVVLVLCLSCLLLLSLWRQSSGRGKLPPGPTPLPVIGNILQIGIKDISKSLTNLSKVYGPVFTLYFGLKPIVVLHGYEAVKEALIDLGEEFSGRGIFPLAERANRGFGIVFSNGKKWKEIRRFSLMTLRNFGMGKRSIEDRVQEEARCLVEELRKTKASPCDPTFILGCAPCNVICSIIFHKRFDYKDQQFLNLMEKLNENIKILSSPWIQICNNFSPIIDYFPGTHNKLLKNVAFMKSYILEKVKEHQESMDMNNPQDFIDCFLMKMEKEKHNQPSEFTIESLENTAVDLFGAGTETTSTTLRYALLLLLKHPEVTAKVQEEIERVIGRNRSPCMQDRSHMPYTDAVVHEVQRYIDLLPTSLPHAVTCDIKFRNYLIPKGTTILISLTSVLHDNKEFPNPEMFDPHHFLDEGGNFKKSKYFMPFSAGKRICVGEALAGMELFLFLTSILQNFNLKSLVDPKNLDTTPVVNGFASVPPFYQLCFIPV

Streptococcus = assay: Group A Streptococcus viability loss, dose response, counter-screen for streptokinase expression inhibitor project, luminescence, BacTiterGlo (AID 1915); assay type: functional, organism-based;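 further: potency for reduction of bacterial viability or growth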
[3] = test system: Streptococcus sp. 'group A'; assay: growth inhibition of control SK(-) GAS strain, dose response, counter-screen for streptokinase expression inhibitor project, luminescence, kanamycin, BacTiterGlo, confirmation (AID 1900); assay type: functional, organism-based

Sequence of Cytochrome P450 3A4 (P08684 whole entry): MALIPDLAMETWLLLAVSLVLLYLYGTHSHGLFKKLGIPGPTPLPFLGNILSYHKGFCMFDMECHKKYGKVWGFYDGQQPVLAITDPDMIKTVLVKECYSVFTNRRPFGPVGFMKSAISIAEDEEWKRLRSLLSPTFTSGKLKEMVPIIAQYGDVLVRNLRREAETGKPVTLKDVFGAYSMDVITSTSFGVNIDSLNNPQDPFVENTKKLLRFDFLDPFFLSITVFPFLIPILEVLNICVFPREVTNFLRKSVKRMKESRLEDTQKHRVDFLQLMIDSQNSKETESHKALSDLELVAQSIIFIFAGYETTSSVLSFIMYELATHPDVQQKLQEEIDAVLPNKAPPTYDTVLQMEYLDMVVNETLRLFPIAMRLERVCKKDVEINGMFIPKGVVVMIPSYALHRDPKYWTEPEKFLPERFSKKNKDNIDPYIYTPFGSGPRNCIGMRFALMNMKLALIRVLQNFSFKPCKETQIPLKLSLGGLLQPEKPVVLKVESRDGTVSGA

Structure (SMILES)	AC50 (Cytochrome P450 3A4)	EC50 [1]	EC50 [2]	further results
C[N+](C)(CCCCCC[N+](C)(C)CCCN1C(=O)c2cccc3cccc(c23)C1=O)CCCN1C(=O)c2cccc3cccc(c23)C1=O	2.51 µM (inconclusive)	–	–	–
CC(=O)c1ccc(N2CCN(C(=O)c3ccc(Cn4c(=S)[nH]c5ccc(N6CCOCC6)cc5c4=O)cc3)CC2)cc1	–	> 60 µM (not active)	1070 nM (active)	–
Cc1ccc(OCCNC(=O)c2cncc(Br)c2)cc1C	–	–	–	AC50 (Cytochrome P450 2C9): 25.1 µM (inconclusive)
COCCNc1nc(-c2ccoc2)nc2ccccc12	12.6 µM (inconclusive)	–	–	–
C=CCOc1c(Br)cc(CNCCCN2CCOCC2)cc1OC	–	22.9 µM (active)	521 nM (active)	–
Fc1ccc(C2=Nn3c(Cc4ccccc4F)nnc3SC2)cc1	12.6 µM (inconclusive)	–	–	AC50 (Cytochrome P450 2C9): 2 µM (inconclusive)
COc1ccc(-n2c(=O)c(CCc3ccccc3)nc3cnc(N4CCN(C)CC4)nc32)cc1	12.6 µM (inconclusive)	–	–	–
CCN(CC)CCN(C(=O)c1ccc2c(c1)CCCC2)c1nc2ccc(F)cc2s1	–	> 60 µM (not active)	818 nM (active)	–
CC(=O)N1CCc2cc(Br)cc(S(=O)(=O)N3CCN(C(=O)c4ccco4)CC3)c21	15.8 µM (inconclusive)	–	–	–
COC(=O)c1ccc(C2Nc3cccc4cccc(c34)N2)cc1	–	> 60 µM (not active)	6100 nM (active)	–
CN(CCc1ccccn1)Cc1ccc(Cl)cc1	–	> 60 µM (not active)	221 nM (active)	–
O=C(COc1ccccc1)NC(=S)Nc1ccc2c(c1)Cc1ccccc1-2	–	> 60 µM (not active)	641 nM (active)	–
Fc1ccccc1Cc1noc(CN2CCN(C/C=C/c3ccccc3)CC2)n1	–	> 60 µM (inconclusive)	443 nM (active)	–
O=C(CC1C(=O)NCCN1C(=S)Nc1ccccc1)Nc1ccc2c(c1)OCCO2 (stereo not drawn)	25.1 µM (inconclusive)	–	–	AC50 (Cytochrome P450 2C9): 35.5 µM (inconclusive)
O=C1CC(SC(=Nc2ccccc2)Nc2ccccc2)C(=O)N1c1ccc(Cl)c(Cl)c1 (stereo not drawn)	–	> 60 µM (inconclusive)	2060 nM (active)	–
Cc1nc2ccccn2c1C(=O)C1=C(O)C(=O)N(CCCn2ccnc2)C1c1ccncc1 (stereo not drawn)	–	–	–	AC50 (Cytochrome P450 2C9): 11.2 µM (inconclusive)
Cc1ccc(S(=O)(=O)NCC(c2cccnc2)N2CCN(Cc3ccccc3)CC2)cc1 (stereo not drawn)	–	> 60 µM (not active)	732 nM (active)	–
CCNc1nc(Sc2ccc(C)cc2)cc(C(F)(F)F)n1	22.4 µM (inconclusive)	–	–	–
CCC(c1nnnn1CS(=O)(=O)c1ccc(C)cc1)N1CCN(c2nc3ccccc3s2)CC1 (stereo not drawn)	–	> 30 µM (not active)	861 nM (active)	–
CC[C@H](Cc1c(I)cc(I)c(N)c1I)C(=O)O	–	–	–	AC50 (Cytochrome P450 2C9): 6.31 µM (inconclusive)
COc1ccc(N2CCN(C(=O)c3ccc(Cn4c(=S)[nH]c5ccc(N6CCOCC6)cc5c4=O)cc3)CC2)cc1	–	> 30 µM (not active)	684 nM (active)	–
C=CCNCCOCCOc1ccc(C)cc1Br	–	> 60 µM (not active)	3360 nM (active)	–
CCOc1ccc(C(CC(=O)O)NC(=O)COc2ccccc2)cc1 (stereo not drawn)	–	–	–	AC50 (Cytochrome P450 2C9): 39.8 µM (inconclusive)
CC(COc1cccc2ccccc12)CN1CCN(C)CC1 (stereo not drawn)	–	> 30 µM (not active)	284 nM (active)	–

Structure (SMILES)	AC50 (Cytochrome P450 3A4)	EC50 [1]	EC50 [2]	further results
CCOC(=O)C1CCCN(C/C=C/c2ccccc2[N+](=O)[O-])C1 (stereo not drawn)	25.1 µM (inconclusive)	–	–	AC50 (Cytochrome P450 2C9): 15.8 µM (inconclusive)
CCCCn1c(=O)c(C(=O)Nc2ccccn2)c(O)c2ccccc21	–	–	–	EC50 (Streptococcus): 19.2 µM (active); EC50 [3]: 3.64 µM (active)
COc1cccc(CN2CCN(Cc3c(C)nn(C(C)C)c3C)CC2CCO)c1 (stereo not drawn)	–	> 60 µM (not active)	1140 nM (active)	–
CC(C)c1cccc(OCCCCN(C)C)c1	–	> 60 µM (not active)	587 nM (active)	–
CC(C)NC(=O)N1CC[C@@]2(CCCN(S(=O)(=O)c3ccccc3)C2)C1	20 µM (inconclusive)	–	–	–
COc1c(C)cc(Br)cc1C(=O)Nc1ccc(Cc2ccncc2)cc1	–	> 60 µM (not active)	2160 nM (active)	–
CCOc1ccc(-c2nnc3n2N=C(c2ccc(OC)cc2)CS3)cc1	–	–	–	AC50 (Cytochrome P450 2C9): 2.51 µM (inconclusive)
COc1ccc(/C=C/C(=O)NC(=S)NNC(=O)c2cc(OC)c(OC)c(OC)c2)cc1	–	–	–	EC50 (Streptococcus): 3.48 µM (active); EC50 [3]: 1.38 µM (active)
Cc1nn(CC(N)=O)c(=O)c2ccccc12	–	> 30 µM (not active)	903 nM (active)	–
Cc1cnc(CNc2ccnc(-c3ccc(N(C)C)cc3)n2)cn1	10 µM (inconclusive)	–	–	–
CCCCn1c2ccc(F)cc2c2nnc(SCCN3CCCCC3)nc21	–	> 60 µM (not active)	681 nM (active)	–
O=C(NCC1CCCO1)C(c1cccs1)N(Cc1ccccc1Cl)C(=O)c1ccc(-c2ccccc2)[nH]1 (stereo not drawn)	–	> 30 µM (not active)	2960 nM (active)	–
CCOC(=O)N(c1ccccc1)P1(=S)OCCO1	–	–	–	AC50 (Cytochrome P450 2C9): 0.0355 µM (inconclusive)
COc1ccc(C(=O)C2CCCN(Cc3cccc4c3OCO4)C2)cc1OC (stereo not drawn)	–	12.4 µM (active)	576 nM (active)	–
O=C(NC1CCCC1)c1cnn2c(C(F)(F)F)cc(-c3ccco3)nc12	–	–	–	AC50 (Cytochrome P450 2C9): 22.4 µM (inconclusive)
O=C(Nc1nc(-c2ccc(F)cc2)cs1)C1CCN(C(=O)c2ccc(F)cc2)CC1	–	> 60 µM (not active)	4570 nM (active)	–
O=c1c(-c2ccc(F)c(F)c2)nc2cncnc2n1Cc1ccccc1Cl	12.6 µM (inconclusive)	–	–	–
Cn1c(=O)c2c(nc(N3CCN(c4ccccn4)CC3)n2Cc2ccccc2Cl)n(C)c1=O	1.26 µM (inconclusive)	–	–	–
CCOc1ccc2nc(N3CCCCCC3)sc2c1	35.5 µM (inconclusive)	–	–	AC50 (Cytochrome P450 2C9): 12.6 µM (inconclusive)
O=C(c1cc(-c2cccs2)on1)N1CCN(c2ccc(F)cc2)CC1	20 µM (inconclusive)	–	–	–
Cc1cc2ccccn2c1C(=O)c1nc(N2CCOCC2)ncc1Cl	28.2 µM (inconclusive)	–	–	AC50 (Cytochrome P450 2C9): 39.8 µM (inconclusive)
O=c1c(-c2cccs2)nc2cnc(N3CCOCC3)nc2n1-c1ccccc1	7.94 µM (inconclusive)	–	–	AC50 (Cytochrome P450 2C9): 10 µM (inconclusive)
Cc1ccc(SCCN2CCN(C)CC2)cc1	–	10.3 µM (active)	852 nM (active)	–
COc1cc(S(=O)(=O)N2CCC(O)(c3cccc(C(F)(F)F)c3)CC2)ccc1-n1cnnn1	–	> 60 µM (not active)	2610 nM (active)	–

Structure (SMILES)	AC50 (Cytochrome P450 3A4)	EC50 [1]	EC50 [2]	further results
CCO/C(O)=C/C1=NC2(CCCCC2)Cc2cc(OC)c(OC)cc21	–	> 60 µM (not active)	2200 nM (active)	–
COC(=O)N1CCC2(CCCN(c3ccc(-c4ccccc4)cc3)C2)CC1	39.8 µM (inconclusive)	–	–	–
Cc1cnc2cc(Cl)ccc2c1SCC(=O)O	3.98 µM (inconclusive)	–	–	–
COc1cc(OC)c(C2C(C(=O)Nc3ccc(C)cc3C)=C(C)Nc3ncnn32)cc1OC (stereo not drawn)	–	–	–	AC50 (Cytochrome P450 2C9): 15.8 µM (inconclusive)
Cc1oc(-c2cccc(Cl)c2)nc1CN1CCCC(C(=O)NCCCN2CCOCC2)C1 (stereo not drawn)	–	> 60 µM (not active)	234 nM (active)	–
CCN(CC)P(=O)(Nc1ccccc1Br)c1ccc(N(C)C)cc1NC(=O)c1ccco1 (stereo not drawn)	–	> 60 µM (not active)	1950 nM (active)	–
N#CC(C(=O)OC1CCCCC1)c1nc2ccccc2nc1N1CCCCC1 (stereo not drawn)	–	8.74 µM (active)	1010 nM (active)	–
Cc1nc2cnc(OCc3ccccc3)nc2n(CCC#N)c1=O	3.98 µM (inconclusive)	–	–	–
O=C(c1csnn1)N1CCC2(CC1)CN(Cc1ccncc1)C2	15.8 µM (inconclusive)	–	–	–
CCNc1ncc2nc(-c3ccccc3)c(=O)n(CCC#N)c2n1	25.1 µM (inconclusive)	–	–	–
O=C1C2C(c3ccccc3)CC=CC2[C@H](c2cccc([N+](=O)[O-])c2)N1Cc1ccccc1 (stereo partly drawn)	–	> 60 µM (not active)	2170 nM (active)	–
COc1ccccc1CNc1ncncc1-c1ccccc1C	0.398 µM (inconclusive)	–	–	–
CC(C)OC(=O)c1cn(-c2ccccc2)nc1-c1ccco1	–	31.6 µM (active)	1610 nM (active)	–
CCC(C)Nc1c([N+](=O)[O-])cc(C)cc1[N+](=O)[O-] (stereo not drawn)	25.1 µM (inconclusive)	–	–	AC50 (Cytochrome P450 2C9): 15.8 µM (inconclusive)
CCCCCCCCCCCCCCCCCCNC(=O)OC[C@@H](COP(=O)([O-])OCC[n+]1ccsc1)OC	–	–	–	AC50 (Cytochrome P450 2C9): 39.8 µM (inconclusive)
CSc1cc2c(cc1C(F)(F)F)N(C(=O)Nc1cccnc1)CC2	3.98 µM (inconclusive)	–	–	–
C/C(=N\OC(=O)NC(C)C)c1sc(-c2ccccc2)nc1C	25.1 µM (inconclusive)	–	–	AC50 (Cytochrome P450 2C9): 11.2 µM (inconclusive)
Cc1nn(Cc2ccc(F)cc2)c(Cl)c1/C=N/NC(=O)c1ccccc1	–	> 60 µM (not active)	2670 nM (active)	–
O=C(N/N=C\c1cccc(F)c1)c1ccc(Cn2cc(Br)c([N+](=O)[O-])n2)o1	–	> 60 µM (not active)	889 nM (active)	–
Nc1c(S(=O)(=O)O)cc(Nc2cccc(S(N)(=O)=O)c2)c2c1C(=O)c1ccccc1C2=O	7.94 µM (inconclusive)	–	–	–
CN1/C(=C/c2cccc[n+]2C)Sc2ccccc21	–	> 60 µM (not active)	185 nM (active)	–
CCOC(=O)CCC(=O)O[C@H]1[C@H](O[C@@H]2[C@@H](C)[C@H](O[C@H]3C[C@@](C)(OC)[C@@H](O)[C@H](C)O3)[C@@H](C)C(=O)O[C@H](CC)[C@@](C)(O)[C@H](O)[C@@H](C)C(=O)[C@H](C)C[C@@]2(C)O)O[C@H](C)C[C@@H]1N(C)C [ERYTHROMYCIN ETHYLSUCCINATE]	–	–	–	EC50 (Streptococcus): < 0.06 µM (active); EC50 [3]: < 0.06 µM (active)
